Data as given in patent US8629328B2 (Monsanto Technology LLC, priority 2006, dated 2014).
Where “and” joins values, the source holds several entries; their conditions need not be identical. Equal values may be shown once. Read-outs that look alike come from different tables or passages of the source.

Key:
[1] = tested on: soybean plants containing DMO-encoding polynucleotide construct (Events 1-5)
Text: Non-transgenic and transgenic soybean seeds were planted around the beginning of the growing season at the time of optimum growth conditions depending on soil moisture, temperature, and seeding depth. […] The design details were as follows: 6 locations, 2 replications/location, 2 rows/plot, row length 12 feet (+3 ft alley), 9 seeds/foot, 108 seeds/row, 5 events (Events 1-4 and a fifth event that was segregating); and 4 treatments as shown below in Table 5. In all 240 plots were planted at 6 locations (40 per location).
Four non-transgenic border rows were planted all around the trial using a known commercial line such as A3525. Optimum production and management practices known in the art were followed. […] The field was irrigated as needed according to standard practices.
Seed planting and pre-emergence treatment were carried out approximately one-month apart in late spring in Monmouth, Ill.

MARESTAIL (CA) Resistant = assay: Control of marestail by dicamba or glyphosate, treated at rosette leaf stage; format: in vivo, Conyza canadensis; settings: dicamba formulation 280 g/ha
Text: (§1) Marestail is one of the major weeds in a crop field. Marestail is effectively controlled by glyphosate, but the development of methods for controlling this common weed with other herbicides is important to minimize opportunities for herbicide tolerance to develop.

MARESTAIL (KY) Resistant = assay: as above; format: in vivo, Conyza canadensis; settings: dicamba formulation 280 g/ha
Text: as §1

[2] = tested on: transformed cotton plants comprising a DMO coding region
Text: Several DNA constructs carrying a DMO coding region as disclosed herein with a transit peptide (e.g., PsRbcS CTP, CTP1, CTP2) under the control of plant gene expression elements such as a promoter (e.g. PC1SV, FMV, or e35S), and a 3′UTR (e.g. E6; Accession #U30508) were produced and transformed into cotton (Gossypium hirsutum) as follows. Nucleotide sequences/and or patent references for various expression elements are disclosed in co-pending application U.S. Ser. No. 60/891,675. Media used are noted in Table 13.
Cotton transformation was performed, for instance as described according to U.S. Patent Application Publication 20040087030, via an embryogenic approach. Explants of cotton cv Coker 130 were grown in vitro and with a liquid suspension of Agrobacterium tumefaciens carrying a DNA construct of interest, using selection on kanamycin containing media. Putative transgenic plantlets were then transferred to soil to obtain mature cotton plants.

[3] = Event 1, Post at V3: 1.5 lb/acre 4 weeks after planting
[4] = Event 1, Pre & Post: 1.5 lb/acre at planting and 1.5 lb/acre 4 weeks after planting
[5] = Event 1, Pre at sowing: 1.5 lb/acre at planting
[6] = Event 2, Post at V3: 1.5 lb/acre 4 weeks after planting
[7] = Event 2, Pre & Post: 1.5 lb/acre at planting and 1.5 lb/acre 4 weeks after planting
[8] = Event 2, Pre at sowing: 1.5 lb/acre at planting
[9] = Event 3, Post at V3: 1.5 lb/acre 4 weeks after planting
[10] = Event 3, Pre & Post: 1.5 lb/acre at planting and 1.5 lb/acre 4 weeks after planting
[11] = Event 3, Pre at sowing: 1.5 lb/acre at planting
[12] = Event 4, Post at V3: 1.5 lb/acre 4 weeks after planting
[13] = Event 4, Pre & Post: 1.5 lb/acre at planting and 1.5 lb/acre 4 weeks after planting
[14] = Event 4, Pre at sowing: 1.5 lb/acre at planting
[15] = Event 5 (segregating), Post at V3: 1.5 lb/acre 4 weeks after planting
[16] = Event 5 (segregating), Pre & Post: 1.5 lb/acre at planting and 1.5 lb/acre 4 weeks after planting
[17] = Event 5 (segregating), Pre at sowing: 1.5 lb/acre at planting

Compound: COc1c(Cl)ccc(Cl)c1C(=O)O [dicamba, 3,6-dichloro-o-anisic acid]
- % GR 6/27 [1, 3]: 0%
- % GR 7/5 [1, 3]: 0%
- % Inj 6/7 [1, 3]: 0%
- % Inj 6/13 [1, 3]: 0%
- % Inj 6/20 [1, 3]: 0%
- % Inj 6/27 [1, 3]: 5% and 7%
- % Inj 7/5 [1, 3]: 0%
- % GR 6/27 [1, 4]: 0% and 3%
- % GR 7/5 [1, 4]: 0%
- % Inj 6/7 [1, 4]: 0%
- % Inj 6/13 [1, 4]: 0% and 2%
- % Inj 6/20 [1, 4]: 0% and 2%
- % Inj 6/27 [1, 4]: 5%
- % Inj 7/5 [1, 4]: 0%
- % GR 6/27 [1, 5]: 0%
- % GR 7/5 [1, 5]: 0%
- % Inj 6/7 [1, 5]: 0%
- % Inj 6/13 [1, 5]: 0% and 2%
- % Inj 6/20 [1, 5]: 0%
- % Inj 6/27 [1, 5]: 1% and 2%
- % Inj 7/5 [1, 5]: 0%
- Dead or Stunted [1, 5]: 0
- % GR 6/27 [1, 6]: 0%
- % GR 7/5 [1, 6]: 0%
- % Inj 6/7 [1, 6]: 0%
- % Inj 6/13 [1, 6]: 0%
- % Inj 6/20 [1, 6]: 0%
- % Inj 6/27 [1, 6]: 3%
- % Inj 7/5 [1, 6]: 0% and 2%
- % GR 6/27 [1, 7]: 0%
- % GR 7/5 [1, 7]: 0%
- % Inj 6/7 [1, 7]: 0%
- % Inj 6/13 [1, 7]: 0%
- % Inj 6/20 [1, 7]: 0%
- % Inj 6/27 [1, 7]: 1% and 2%
- % Inj 7/5 [1, 7]: 2% and 0%
- Dead or Stunted [1, 7]: 0
- % GR 6/27 [1, 8]: 0%
- % GR 7/5 [1, 8]: 0%
- % Inj 6/7 [1, 8]: 0%
- % Inj 6/13 [1, 8]: 0%
- % Inj 6/20 [1, 8]: 0%
- % Inj 6/27 [1, 8]: 5% and 2%
- % Inj 7/5 [1, 8]: 0%
- Dead or Stunted [1, 8]: 0
- % GR 6/27 [1, 9]: 3% and 0%
- % GR 7/5 [1, 9]: 0%
- % Inj 6/7 [1, 9]: 0%
- % Inj 6/13 [1, 9]: 0%
- % Inj 6/20 [1, 9]: 0%
- % Inj 6/27 [1, 9]: 3% and 5%
- % Inj 7/5 [1, 9]: 0% and 3%
- Dead or Stunted [1, 9]: 0
- % GR 6/27 [1, 10]: 0%
- % GR 7/5 [1, 10]: 0%
- % Inj 6/7 [1, 10]: 0%
- % Inj 6/13 [1, 10]: 0% and 2%
- % Inj 6/20 [1, 10]: 0%
- % Inj 6/27 [1, 10]: 3%
- % Inj 7/5 [1, 10]: 2% and 0%
- Dead or Stunted [1, 10]: 0
- % GR 6/27 [1, 11]: 0%
- % GR 7/5 [1, 11]: 0%
- % Inj 6/7 [1, 11]: 0%
- % Inj 6/13 [1, 11]: 4% and 2%
- % Inj 6/20 [1, 11]: 0%
- % Inj 7/5 [1, 11]: 0% and 3%
- Dead or Stunted [1, 11]: 0
- % GR 6/27 [1, 12]: 0%
- % GR 7/5 [1, 12]: 0%
- % Inj 6/7 [1, 12]: 0%
- % Inj 6/13 [1, 12]: 0%
- % Inj 6/20 [1, 12]: 0%
- % Inj 6/27 [1, 12]: 3%
- % Inj 7/5 [1, 12]: 0%
- Dead or Stunted [1, 12]: 0
- % GR 6/27 [1, 13]: 8% and 3%
- % GR 7/5 [1, 13]: 2% and 0%
- % Inj 6/7 [1, 13]: 0%
- % Inj 6/13 [1, 13]: 0% and 1%
- % Inj 6/20 [1, 13]: 0%
- % Inj 6/27 [1, 13]: 3%
- % Inj 7/5 [1, 13]: 2% and 0%
- Dead or Stunted [1, 13]: 0
- % GR 6/27 [1, 14]: 0%
- % GR 7/5 [1, 14]: 0%
- % Inj 6/7 [1, 14]: 0%
- % Inj 6/13 [1, 14]: 3% and 4%
- % Inj 6/20 [1, 14]: 0%
- % Inj 6/27 [1, 14]: 5% and 2%
- % Inj 7/5 [1, 14]: 0%
- Dead or Stunted [1, 14]: 0
- % GR 6/27 [1, 15]: 0% and 5%
- % GR 7/5 [1, 15]: 0%
- % Inj 6/7 [1, 15]: 0%
- % Inj 6/13 [1, 15]: 0%
- % Inj 6/20 [1, 15]: 0%
- % Inj 6/27 [1, 15]: 7% and 5%
- % Inj 7/5 [1, 15]: 2%
- Dead or Stunted [1, 15]: 15
- % GR 6/27 [1, 16]: 5% and 0%
- % GR 7/5 [1, 16]: 0%
- % Inj 6/7 [1, 16]: 0%
- % Inj 6/13 [1, 16]: 15% and 10%
- % Inj 6/20 [1, 16]: 10%
- % Inj 6/27 [1, 16]: 3% and 1%
- % Inj 7/5 [1, 16]: 0%
- Dead or Stunted [1, 16]: 23 and 20
- % GR 6/27 [1, 17]: 0%
- % GR 7/5 [1, 17]: 0%
- % Inj 6/7 [1, 17]: 0%
- % Inj 6/13 [1, 17]: 15% and 8%
- % Inj 6/20 [1, 17]: 15% and 10%
- % Inj 6/27 [1, 17]: 5% and 2%
- % Inj 7/5 [1, 17]: 0%
- Dead or Stunted [1, 17]: 24 and 14
- injury in field, overall ([1]; pre- and post-emergence applications of dicamba, all transgenic soybean plants): no or very little injury
- % Injury (21 DAT) (MARESTAIL (CA) Resistant): about 83%
- % Injury (21 DAT) (MARESTAIL (KY) Resistant): about 91%
- tolerance to subsequent post-emergent treatment ([2]; 0.5 lb/acre at V3-4 followed by 1 or 2 lb/acre at V5 or later stages): still tolerant
- tolerance ([2]; post-emergent at V4-5 growth stage, 561 g ae/ha (0.5 lb/a)): tolerant
- tolerance of R1 transgenic seeds and plants ([2]; pre-emergence or pre-emergence and post-emergence dicamba treatment): tolerant
